# Patent publication US20080274892A1, “Novel Haloalkylsulfonanilide Derivative, Herbicide, and Method of Use Thereof” (priority 2005, published 2008)
# What was measured:
# bulrush [1] = test: Test Example 1: herbicidal efficacy on rice paddy weeds pre-emergence; type: in vivo, Scirpus juncoides; details: dosage 1000 g/ha, 21 days
# barnyard glass = test: Test Example 2: herbicidal efficacy on rice paddy weeds post-emergence; type: in vivo, Echinochloa crus-galli; details: dosage 1000 g/ha; post-emergence, one leaf stage; 21 days after treatment
# Outline: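 Plastic pots of 75 cm^2 were filled with clay loam soil and sown with barnyard glass and bulrush seeds, then topped with 75 cm^3 soil containing false pimpernel seeds. The pots were flooded to 5 cm water depth and held in a hot house. Twenty-one days after treatment, herbicidal efficacy was graded against an untreated control.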
# false pimpernel [2] = test: as above; type: in vivo, Lindernia pyxidaria; details: dosage 1000 g/ha; post-emergence, one leaf stage; 21 days after treatment
# bulrush [3] = test: as above; type: in vivo, Scirpus juncoides; details: dosage 1000 g/ha; post-emergence, one leaf stage; 21 days after treatment
# [4] = test system: paddy rice plant (cultivar: Nihonbare); test: Test Example 3: phytotoxicity test for transplanted paddy rice plant; type: in vivo; details: dosage 1000 g/ha; transplanted rice, treated 5 days after transplantation; 21 days after treatment
# Outline: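 Clay loam soil was placed in a 75 cm^2 plastic pot and flooded to a water depth of 5 cm. Two Nihonbare paddy rice plants at the two-leaf stage were transplanted 1 cm deep and grown in a hot house. After treatment, pots stayed in the hot house for 21 days, and phytotoxicity was then graded against an untreated control.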
# bulrush [5] = test: Test Example 4: low dosage test for rice paddy weeds; type: in vivo, Scirpus juncoides; details: 300 g/ha as an active ingredient; plants treated at the one leaf stage; 21 days after treatment; vs untreated control
# Outline: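 Bulrush sown in clay loam pots, flooded to 5 cm water in a hot house, treated at the one-leaf stage with formulated compound at 300 g/ha. Efficacy scored 0–4 against untreated control 21 days after treatment (4 = 90–100%, 0 = 0% inhibition).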
# [6] = test system: transplanted paddy rice plant and Bulrush; test: Test Example 5: selectivity between transplanted paddy rice plant and weeds; type: in vivo; details: (highest dosage with no phytotoxicity to paddy rice)/(lowest dosage with effective level 4 on Bulrush); rice 3000-100 g/ha, Bulrush 300-10 g/ha; 21 days
# Outline: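 Transplanted paddy rice was treated at 3000, 1000, 300 and 100 g/ha active ingredient for phytotoxicity, and post-emergence bulrush at 300, 100, 30 and 10 g/ha. Plants were kept in a hothouse for 21 days. Growth inhibition versus untreated control was scored 0–4 (0%, 1–39%, 40–69%, 70–89%, 90–100%).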
# false pimpernel [7] = test: Test Example 1: herbicidal efficacy on rice paddy weeds pre-emergence; type: in vivo, Lindernia pyxidaria; details: dosage 1000 g/ha, 21 days
SMILES,Bulrush pre (herbicidal efficacy grade) (bulrush [1]),Burnyard grass post (herbicidal efficacy grade) (barnyard glass),False pimpernel post (herbicidal efficacy grade) (false pimpernel [2]),Bulrush post (herbicidal efficacy grade) (bulrush [3]),Phytotoxicity to paddy rice [4],Herbicide effect to Bulrush (bulrush [5]),Selective Index [6],False pimpernel pre (herbicidal efficacy grade) (false pimpernel [7])
CCCC1(CC)CN(Cc2ccccc2NS(=O)(=O)C(F)(F)F)C(=O)O1 (centres unmarked) [1-130],4 (90%-100% of herbicidal efficacy or phytotoxicity),4 (90%-100% of herbicidal efficacy or phytotoxicity),4 (90%-100% of herbicidal efficacy or phytotoxicity),4 (90%-100% of herbicidal efficacy or phytotoxicity),1 (1%-39% of herbicidal efficacy or phytotoxicity),4 (90%-100% of herbicidal efficacy or phytotoxicity),10,4 (90%-100% of herbicidal efficacy or phytotoxicity)
CC(C)COC(=O)N(c1ccccc1CN1CC(C)(C(C)C)OC1=O)S(=O)(=O)C(F)(F)F (racemic) [1-102],4 (90%-100% of herbicidal efficacy or phytotoxicity),4 (90%-100% of herbicidal efficacy or phytotoxicity),4 (90%-100% of herbicidal efficacy or phytotoxicity),4 (90%-100% of herbicidal efficacy or phytotoxicity),1 (1%-39% of herbicidal efficacy or phytotoxicity),4 (90%-100% of herbicidal efficacy or phytotoxicity),10,4 (90%-100% of herbicidal efficacy or phytotoxicity)
CC(C)COC(=O)N(c1ccccc1CN1CC2(CCC2)OC1=O)S(=O)(=O)C(F)(F)F [1-86],4 (90%-100% of herbicidal efficacy or phytotoxicity),4 (90%-100% of herbicidal efficacy or phytotoxicity),4 (90%-100% of herbicidal efficacy or phytotoxicity),4 (90%-100% of herbicidal efficacy or phytotoxicity),1 (1%-39% of herbicidal efficacy or phytotoxicity),4 (90%-100% of herbicidal efficacy or phytotoxicity),10,4 (90%-100% of herbicidal efficacy or phytotoxicity)
COC(=O)N(c1ccccc1CN1CC(C)(C2CC2)OC1=O)S(=O)(=O)C(F)(F)F (racemic) [1-110],4 (90%-100% of herbicidal efficacy or phytotoxicity),4 (90%-100% of herbicidal efficacy or phytotoxicity),4 (90%-100% of herbicidal efficacy or phytotoxicity),4 (90%-100% of herbicidal efficacy or phytotoxicity),2 (40%-69% of herbicidal efficacy or phytotoxicity),4 (90%-100% of herbicidal efficacy or phytotoxicity),≧30,4 (90%-100% of herbicidal efficacy or phytotoxicity)
CCCCCCOC(=O)N(c1ccccc1CN1CC(C)(C)OC1=O)S(=O)(=O)C(F)(F)F [1-93],4 (90%-100% of herbicidal efficacy or phytotoxicity),4 (90%-100% of herbicidal efficacy or phytotoxicity),4 (90%-100% of herbicidal efficacy or phytotoxicity),4 (90%-100% of herbicidal efficacy or phytotoxicity),1 (1%-39% of herbicidal efficacy or phytotoxicity),4 (90%-100% of herbicidal efficacy or phytotoxicity),≧30,4 (90%-100% of herbicidal efficacy or phytotoxicity)
COC(=O)N(c1ccccc1CN1CC(C)(C(C)(C)C)OC1=O)S(=O)(=O)C(F)(F)F (centres unmarked) [1-153],4 (90%-100% of herbicidal efficacy or phytotoxicity),4 (90%-100% of herbicidal efficacy or phytotoxicity),4 (90%-100% of herbicidal efficacy or phytotoxicity),4 (90%-100% of herbicidal efficacy or phytotoxicity),1 (1%-39% of herbicidal efficacy or phytotoxicity),4 (90%-100% of herbicidal efficacy or phytotoxicity),10,4 (90%-100% of herbicidal efficacy or phytotoxicity)
"CC1(C)OC(=O)N(Cc2ccccc2NS(=O)(=O)C(F)(F)F)C1=O [Compound No. 1-187, 5,5-dimethyl-3-[2-(trifluoromethanesulfonylamino)benzyl]oxazolidine-2,4-dione]",4 (90%-100% of herbicidal efficacy or phytotoxicity),4 (90%-100% of herbicidal efficacy or phytotoxicity),4 (90%-100% of herbicidal efficacy or phytotoxicity),4 (90%-100% of herbicidal efficacy or phytotoxicity),3 (70%-89% of herbicidal efficacy or phytotoxicity),4 (90%-100% of herbicidal efficacy or phytotoxicity),≧10,4 (90%-100% of herbicidal efficacy or phytotoxicity)
CCCCOC(=O)N(c1ccccc1CN1C(=O)OC(C)(C)C1OC)S(=O)(=O)C(F)(F)F (centres unmarked) [1-196],4 (90%-100% of herbicidal efficacy or phytotoxicity),4 (90%-100% of herbicidal efficacy or phytotoxicity),4 (90%-100% of herbicidal efficacy or phytotoxicity),4 (90%-100% of herbicidal efficacy or phytotoxicity),1 (1%-39% of herbicidal efficacy or phytotoxicity),4 (90%-100% of herbicidal efficacy or phytotoxicity),10,4 (90%-100% of herbicidal efficacy or phytotoxicity)
CC(C)COC(=O)N(c1ccccc1CN1CC(C)(C2CC2)OC1=O)S(=O)(=O)C(F)(F)F (centres unmarked) [1-72],4 (90%-100% of herbicidal efficacy or phytotoxicity),4 (90%-100% of herbicidal efficacy or phytotoxicity),4 (90%-100% of herbicidal efficacy or phytotoxicity),4 (90%-100% of herbicidal efficacy or phytotoxicity),1 (1%-39% of herbicidal efficacy or phytotoxicity),4 (90%-100% of herbicidal efficacy or phytotoxicity),10,4 (90%-100% of herbicidal efficacy or phytotoxicity)
COC(=O)N(c1ccccc1CN1C(=O)OC2CCCCC21)S(=O)(=O)C(F)(F)F (centres unmarked) [1-152],4 (90%-100% of herbicidal efficacy or phytotoxicity),4 (90%-100% of herbicidal efficacy or phytotoxicity),4 (90%-100% of herbicidal efficacy or phytotoxicity),4 (90%-100% of herbicidal efficacy or phytotoxicity),1 (1%-39% of herbicidal efficacy or phytotoxicity),4 (90%-100% of herbicidal efficacy or phytotoxicity),10,4 (90%-100% of herbicidal efficacy or phytotoxicity)
